Assay results from patent US7125847B1, “Mechanically activated channel blocker” (priority 2000, dated 2006).
“Also recorded” adds a separate entry of the source. Where no end group is shown, it is not given here.

Tests used:
Assay type in all cases: cell-based
[1] = system: stretch-activated channels (SACs); test: Outside-out patch clamp of stretch-activated channels in adult rat astrocytes
Protocol: This embodiment describes the effect of the peptide GsMTx-4 variant (SEQ ID NO:1) on SACs. To illustrate this, adult rat astrocytes which are known to have SACs, were used. Adult rat astrocytes were cultured according to standard methods. Briefly, activated adult astrocytes isolated from gelatin-sponge implants from adult Sprague-Dawley rat brains obtained according to the method of Langan et al. (1995, Glia, 14:174–184) were used at passage numbers 2–4. Astrocytes were maintained in DMEM, 10% fetal bovine serum and 1% Penicillin/Streptomycin and were used in experiments between 2 and 5 days after passage. Cells between passage 4 and 35 expressed SACs with the same properties Both stellate process bearing cells and flat polygonal (fibroblast-like) cells were used.
The cultured astrocytes were used for single channel and whole cell recorndings. For single channel patch clamp, patch voltage was controlled by an Axopatch 200B (Axon Instruments, Calif.) and currents were recorded directly onto computer disk via a Labmaster DMA Ver. B (Scientific Instruments, Calif.) board controlled by pClamp6-Clampex acquisition software (Axon Instruments, California). Currents were sampled at 10 KHz and low-pass filtered at 2 KHz through the 4 pole Bessel filter on the Axopatch 200B. Experimental voltage protocols were controlled by pClamp6-Clampex. All potentials are defined with respect to the extracellular surface.
Electrodes were pulled on a Model PC-84 pipette puller (Brown-Flaming Instruments, Calif.), painted with Sylgard 184 (Dow Corning Corp. Midland Mich.) and fire polished. Electrodes were filled with KCl saline (KCl 140 mM, EGTA 5 mM, MgSO4 2 mM, Hepes 10 mM, pH 7.3) and had resistances ranging from 3–8 MWBath saline consisted of NaCl 140 mM, KCl 5 mM, MgSO4 1 mM, CaCl2 1 mM, glucose 6 mM and Hepes 10 mM, pH 7.3.
Pressure and suction were applied to the pipette by a pressure clamp. Pressure values represent pressure in the pipette, i.e., the intracellular side of the membrane in outside-out patches. Suction applied to a cell-attached patch has the same sign as pressure applied to an outside-out patch. The rise time of pressure changes at the tip were determined by monitoring the rate of current change when pressure steps were applied to an electrode containing 150 mM KCl solution and placed in a water bath. The t10-90 was ˜5 ms as determined by exponential fits to the current decay. Perfusion of toxin samples was performed by a pressurized bath perfusion system BPS-8 (ALA scientific instruments, NY) with 8 separate channels.
Off-line data analysis was performed with pClamp6 analysis software and Origin 5.0. Maximal unitary channel currents were determined via Guassian fits to the peaks of all points amplitude histograms generated from records containing 1–3 channels. […] Some of these records were analyzed by determining all of the step-like changes in current during the pressure application and selecting the average maximal current level as the unitary current. The data analyzed by this method was in good agreement with the unitary current levels determined by analysis of all points amplitude histograms from single channel patches.
The outside out patches from adult astrocytes as described above were used for testing the HPLC fractions obtained in Example 1. The HPLC fractions were lyophilized, redissolved at a 1:1000 dilution and perfused onto outside out patches. […] The fraction containing the single peak in FIG. 1D was then tested for activity against SACs. […] The patch was held at −50 mV, and the pressure pulse is shown above the records.
The entire experiment is comprised of 60 pressure steps: steps 1–20 occur before GsMTx-4 application; steps 21–38 while GsMTx-4 is being perfused; steps 39–60 occur during washout. Each 500 ms pressure step was separated by 1.5 seconds at 0 pressure.
The association rate of the toxin was determined by applying GsMTx-4 to an outside-out patch while the channels were activated by stretch (FIG. 5). […]

[2] = system: whole-cell swelling-activated currents in adult rat astrocytes; test: Whole-cell (Nystatin perforated patch) currents in adult rat astrocytes, isotonic and hypotonic swelling
Protocol: It is considered that part of the swelling activated currents are attributable to SACs. To illustrate this embodiment, adult rat astrocytes were cultured as described above. Whole cell current was measured by the Nystatin perforated patch. Bath saline was the same as in Example 2. Pipette saline consisted of: KCl 80 mM, K2SO4 30 mM, NaCl 10 mM, MgSO4 3 mM, CaCl20.13 mM, EGTA 0.23 mM and Hepes 10 mM, pH 7.3. Nystatin was dissolved in pipette saline to a final concentration of […]. After patch formation, access resistance was allowed to drop to ˜15 MW (uncompensated), after which the series resistance compensation was set at ˜65%, and prediction was set to ˜75%. Whole cell capacitance measurements ranged from ˜25–50 pF. Whole cell currents were monitored by either a voltage step protocol shown in FIG. 7, or by 600 ms voltage ramps. During hypotonic swelling the cell was perfused initially with isotonic saline (bath saline with 160 mM mannitol replacing 80 mM NaCl) before switching to hypotonic saline (isotonic saline minus 140 mM mannitol). The BPS-8 perfusion system was used to rapidly (<200 ms) change the bathing solution. Peak currents were measured at 3–5 ms into voltage steps.

[3] = system: MSC currents in normal rat kidney cells; test: Outside-out patch clamp of mechanosensitive channel currents in normal rat kidney cells; details: 5 μM
Protocol: NRK cell culture: Normal rat kidney cells (CCA identifier is 49F) at passages 20–25, were maintained in DMEM, 5% fetal bovine serum and 1%
Penicillin/Streptomycin. Cells were plated onto poly-L-lysine coated cover-slips, and used in experiments between 2 and 6 days after passage.
Electrophysiology: An Axopatch 200B (Axon Instruments, California) was used for patch clamping, while experimental protocols and data acquisition were controlled by Axon Instruments pClamp8 software via a Digidata 1322A acquisition system. Currents were sampled at 10 KHz and low-pass filtered at 2 KHz through the 4 pole Bessel filter on the Axopatch 200B. All potentials are defined with respect to the extracellular surface. Electrodes were pulled on a Model PC-84 pipette puller (Brown-Flaming Instruments, California), painted with Sylgard 184 (Dow Corning Corp. Midland Mich.) and fire polished. Electrodes were filled with KCl saline (KCl 140 mM, EGTA 5 mM, MgSO4 2 mM, Hepes 10 mM, pH 7.3) and had resistances ranging from 10–20 MΩ. Bath saline consisted of NaCl—140 mM, KCl—5 mM, CaCl2—2 mM, MgSO4—0.5 mM, glucose—6 mM and Hepes—10 mM, pH 7.3. Pressure and suction were applied to the pipette by a HSPC-1 pressure clamp (ALA Scientific Instruments, New York) controlled by the pClamp software. Perfusion of toxin samples was performed by a pressurized local perfusion system BPS-8 (ALA scientific instruments, NY) with 8 separate channels. Off-line data analysis was performed with Clampfit and Origin 6.1 software.

GCLEFWWKCNPNDDKCCRPKLKCSKLFKLCNFSSG (not fully specified (C-terminus); ends and bridges not checked; listed as Grammastola spatulata) [SEQ ID NO.1, 35 amino acids with C-term glycine amide]
SAC blocking activity [1]: has SAC blocking activity

O=S(=O)(O)c1cc(N=C=S)ccc1C=Cc1ccc(N=C=S)cc1S(=O)(=O)O [DIDS, reference compound]
shift in reversal potential of swelling-activated current ([2]; 50 μM DIDS, average n=6): −33 mV | effect on swelling-activated current ([2]; 50 μM DIDS, especially at depolarized potentials): significant reduction in current

cloned: GsMTx4 liberated by thrombin from a thioredoxin fusion protein, with three extra amino acids at the N-terminus (SGMGCLEFWWKCNPNDDKCCRPKLKCSKLFKLCNFSF; ends and bridges not checked; cysteine pairing not given here)
block of mechanosensitive channels [3]: blocked; also recorded: active in blocking SACs | block of mechanically sensitive current ([3]; outside-out patches held at −50 mV): greater than 75%

[Cl-].[Cs+] [CsCl, reference compound]
effect on whole-cell current in isotonic saline ([2]; CsCl, hyperpolarized potentials): significant decrease in current

synthetic: chemically synthesized GsMTx4 with a C-terminal phenylalanine, folded with GSH/GSSG (GCLEFWWKCNPNDDKCCRPKLKCSKLFKLCNFSF-NH2; disulfide (positions not given here); not fully specified (bridges); also: three intramolecular disulfide bonds, pairing not given here)
block of mechanosensitive channels [3]: active in blocking SACs | block of mechanosensitive channels ([3]; listed as synthetic peptide): blocked
